Reference: ChEMBL document CHEMBL3632603, “Synthesis of biscoumarin and dihydropyran derivatives with promising antitumor and antibacterial activities” (Bioorg Med Chem Lett, 2015)
Converted amounts (≈) assume the structure as drawn.

Columns and labels:
4T1 [1] = assay: Induction of apoptosis in mouse 4T1 cells assessed as viable cells at 5 ug/ml after 48 hrs by Annexin V/Alexa Fuor 488/PI-staining based flow cytometric analysis (Rvb= 91.7%); format: functional; conditions: 4T1, 48 h, read-out: Activity
4T1 [2] = assay: Induction of apoptosis in mouse 4T1 cells assessed as early apoptotic cells at 5 ug/ml after 48 hrs by Annexin V/Alexa Fuor 488/PI-staining based flow cytometric analysis (Rvb=4.4%); format: functional
[3] = Cytotoxicity against human HuTu 80 cells after 48 hrs by MTT assay; format: functional, cell-based; conditions: HuTu80, 48 h
4T1 [4] = assay: Cytotoxicity against mouse 4T1 cells after 48 hrs by MTT assay; format: functional, cell-based; conditions: 4T1, 48 h
[5] = Cytotoxicity against human PANC1 cells after 48 hrs by MTT assay; format: functional, cell-based; conditions: PANC-1, 48 h
Staphylococcus aureus [6] = assay: Antibacterial activity against Staphylococcus aureus ATCC 29213 after 20 hrs by CLSI broth microdilution method; format: functional; conditions: ATCC 29213, 20 h
Staphylococcus aureus [7] = assay: Antibacterial activity against methicillin-resistant Staphylococcus aureus XJ 75302 after 20 hrs by CLSI broth microdilution method; format: functional; conditions: XJ 75302, 20 h
Staphylococcus aureus [8] = assay: Antibacterial activity against methicillin-resistant Staphylococcus aureus Mu50 ATCC 700699 after 20 hrs by CLSI broth microdilution method; format: functional; conditions: Mu50 ATCC 700699, 20 h
Staphylococcus aureus [9] = assay: Antibacterial activity against methicillin-resistant Staphylococcus aureus USA 300 LAC after 20 hrs by CLSI broth microdilution method; format: functional
4T1 [10] = assay: Induction of apoptosis in mouse 4T1 cells assessed as late apoptotic cells at 5 ug/ml after 48 hrs by Annexin V/Alexa Fuor 488/PI-staining based flow cytometric analysis (Rvb=3.5%); format: functional
4T1 [11] = assay: Induction of apoptosis in mouse 4T1 cells assessed as necrotic cells at 5 ug/ml after 48 hrs by Annexin V/Alexa Fuor 488/PI-staining based flow cytometric analysis (Rvb=0.5%); format: functional
4T1 [12] = assay: Induction of apoptosis in mouse 4T1 cells assessed as increase in early and late apoptotic cells at 5 ug/ml after 48 hrs by Annexin V/Alexa Fuor 488/PI-staining based flow cytometric analysis relative to vehicle control; format: functional

SMILES	viability at 5 µg/mL (4T1 [1]) [%]	Activity (4T1 [2]) [%]	IC50 [3] [µg/mL]	IC90 [3] [µg/mL]	IC50 (4T1 [4]) [µg/mL]	IC90 (4T1 [4]) [µg/mL]	IC50 [5] [µg/mL]	IC90 [5] [µg/mL]	MIC (Staphylococcus aureus [6]) [µg/mL]	MIC (Staphylococcus aureus [7]) [µg/mL]	MIC (Staphylococcus aureus [8]) [µg/mL]	MIC (Staphylococcus aureus [9]) [µg/mL]	Activity (4T1 [10]) [%]	Activity (4T1 [11]) [%]	fold change (FC) (4T1 [12])
O=c1oc2ccccc2c(O)c1C(c1ccc(Br)cc1)c1c(O)c2ccccc2oc1=O	30.2	44	29.7 (≈ 60.5 µM)	52.6 (≈ 107 µM)	19.3 (≈ 39.2 µM)	36.7 (≈ 74.7 µM)	31.8 (≈ 64.7 µM)	61.4 (≈ 125 µM)	16 (≈ 32.6 µM)	16 (≈ 32.6 µM)	8 (≈ 16.3 µM)	8 (≈ 16.3 µM)	25.5	0.3	>8
N#CC1=C(N)OC2=C(C(=O)CCC2)C1c1cccc(Br)c1 (stereo not drawn)			281 (≈ 814 µM)	543 (≈ 1570 µM)	157 (≈ 455 µM)	287 (≈ 830 µM)	368 (≈ 1070 µM)	704 (≈ 2040 µM)	> 256	> 256	> 256	> 256			
CO/N=C(\C(=O)N[C@@H]1C(=O)N2C(C(=O)O)=C(CSc3nc(=O)c(O)nn3C)CS[C@H]12)c1csc(N)n1 [CEFTRIAXONE]									2 (≈ 3.61 µM)	> 256	256 (≈ 462 µM)	32 (≈ 57.7 µM)			
C[C@H]1COc2c(N3CCN(C)CC3)c(F)cc3c(=O)c(C(=O)O)cn1c23.C[C@H]1COc2c(N3CCN(C)CC3)c(F)cc3c(=O)c(C(=O)O)cn1c23.O [LEVOFLOXACIN]									< 0.125	4	4	8			
O=c1oc2ccccc2c(O)c1C(c1ccc(F)c(Cl)c1)c1c(O)c2ccccc2oc1=O			32.6 (≈ 70.1 µM)	64.5 (≈ 139 µM)	22.9 (≈ 49.3 µM)	43.2 (≈ 92.9 µM)	30.8 (≈ 66.2 µM)	55.8 (≈ 120 µM)	16 (≈ 34.4 µM)	16 (≈ 34.4 µM)	8 (≈ 17.2 µM)	8 (≈ 17.2 µM)			
CC1(C)CC(=O)C2=C(C1)OC(N)=C(C#N)C2c1ccccc1C#N (stereo not drawn)			414 (≈ 1300 µM)	814 (≈ 2550 µM)	249 (≈ 778 µM)	503 (≈ 1580 µM)	242 (≈ 757 µM)	512 (≈ 1600 µM)	> 256	> 256	> 256	> 256			
N#CC1=C(N)Oc2c(c(=O)oc3ccccc23)C1c1ccc(C#N)cc1 (stereo not drawn)			121 (≈ 355 µM)	221 (≈ 648 µM)	115 (≈ 336 µM)	208 (≈ 609 µM)	150 (≈ 439 µM)	286 (≈ 838 µM)	> 256	> 256	> 256	> 256			
CC1(C)CC(=O)C2=C(C1)OC(N)=C(C#N)C2c1cccc(C(F)(F)F)c1 (stereo not drawn)			388 (≈ 1070 µM)	788 (≈ 2170 µM)	287 (≈ 791 µM)	575 (≈ 1590 µM)	248 (≈ 685 µM)	503 (≈ 1390 µM)	> 256	> 256	> 256	> 256			
